Molecular target: T1, recombinant human CCR1 (Homo sapiens, UniProt P32246)
T1 construct: expressed in transfected cells; membranes prepared from them
T1 sequence (P32246 1-355): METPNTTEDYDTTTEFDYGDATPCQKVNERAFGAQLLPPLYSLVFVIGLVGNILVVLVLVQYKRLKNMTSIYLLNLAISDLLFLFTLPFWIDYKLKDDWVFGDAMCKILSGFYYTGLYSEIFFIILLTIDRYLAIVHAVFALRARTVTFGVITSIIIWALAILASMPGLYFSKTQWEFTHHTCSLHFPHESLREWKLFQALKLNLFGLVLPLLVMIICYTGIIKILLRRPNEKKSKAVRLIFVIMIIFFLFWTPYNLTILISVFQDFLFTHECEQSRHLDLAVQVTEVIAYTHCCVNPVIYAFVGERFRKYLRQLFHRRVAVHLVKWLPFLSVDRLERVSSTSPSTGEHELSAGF
Experiment: Human CCR1 binding assay ([125I] MIP-1α displacement, HEK-CCR1 membranes)
Settings: HEK293 membranes expressing recombinant human CCR1; 33 pM [125I] MIP-1α
Procedure: HEK293 cells, from ECACC, stably expressing recombinant human CCR1 (HEK-CCR1) were used to prepare cell membranes containing CCR1. The membranes were stored at −70° C. The concentration of membranes of each batch was adjusted to 10% specific binding of 33 pM [^125I] MIP-1α.
100 μL of HEK-CCR1 membranes diluted in assay buffer pH 7.4 (137 mM NaCl (Merck, Cat No 1.06404), 5.7 mM Glucose (Sigma, Cat No G5400), 2.7 mM KCl (Sigma, Cat No P-9333), 0.36 mM NaH2PO4×H2O (Merck, Cat No 1.06346), 10 mM HEPES (Sigma, Cat No H3375), 0.1% (w/v) Gelatine (Sigma, Cat No G2625)) with the addition of 17500 units/L Bacitracin (Sigma, Cat No B1025) were added to each well of the 96 well filter plate (0.45 μm opaque Millipore cat no MHVB N4550). […] 12 μl assay buffer with 10% DMSO was added to certain wells (without compound) to detect maximal binding (B0).
12 μL [^125I] MIP-1α, diluted in assay buffer to a final concentration in the wells of 33 pM, was added to all wells. The plates with lid were then incubated for 1.5 hrs at room temperature. After incubation the wells were emptied by vacuum filtration (MultiScreen Resist Vacuum Manifold system, Millipore) and washed once with 200 μl assay buffer. After the wash, all wells received an addition of 50 μL of scintillation fluid (OptiPhase “Supermix”, Wallac Oy, Turko, Finland). Bound [^125I] MIP-1: was measured using a Wallac Trilux 1450 MicroBeta counter. […]

IC50: < 50 nM
SMILES: CC(=O)Nc1ccc(O)cc1OC[C@@](C)(O)CNC1CCN(Cc2ccc(Cl)cc2)CC1 [N-{2-[((2S)-3-{[1-(4-chlorobenzyl)piperidin-4-yl]amino}-2-hydroxy-2-methylpropyl)oxy]-4-hydroxyphenyl}acetamide ditrifluoroacetate]

From patent US20080176902A1, “Salt III” (ASTRAZENECA AB, priority 2005, published 2008)
